One test concerns Puccinia recondita. In words: Fungicidal activity against wheat leaf rust (WLR) disease, control value. In kind it is in vivo. Particulars: for WLR control value (C.V.): wheat leaf rust.
Another test deals with Botrytis cinerae. In words: Fungicidal activity against cucumber gray mold rot (CGM) disease, control value. In kind it is in vivo. The following applies: for CGM control value (C.V.): cucumber gray mold rot.
For the next test, the system named is Phytophthora infestans. Nature of the test: whole plant or invertebrate. In kind it is in vivo. Particulars: for TLB control value (C.V.): tomato late blight.
For a further test, the system named is Rhizoctonia solani AG-1. In words: Fungicidal activity against rice sheath blight (RSB) disease, control value. Particulars: for RSB control value (C.V.): rice sheath blight.
Test [1] relates to Pyricularia oryzae Carvara KA301. In words: whole plant or invertebrate. In kind it is in vivo. Particulars: for RCB control value (C.V.): rice blast.
A further test concerns Erysiphae graminis. In words: Fungicidal activity against barley powdery mildew (BPM) disease, control value. Particulars: for BPM control value (C.V.): barley powdery mildew. In kind it is in vivo.
Setting [2] is: Puccinia recondita, 2 ppm, read-out: WLR control value (C.V.).
Where [3] appears, read: Puccinia recondita, 10 ppm, read-out: WLR control value (C.V.).
The mark [4] stands for this setting: Puccinia recondita, 50 ppm, read-out: WLR control value (C.V.).
Where [5] appears, read: Phytophthora infestans, in Solanum lycopersicum, read-out: TLB control value (C.V.).
Setting [6] is: Rhizoctonia solani, AG1, in Oryza sativa, read-out: RSB control value (C.V.).
Where [7] appears, read: Pyricularia oryzae, read-out: RCB control value (C.V.).
[8] abbreviates: 168 h, 2 ppm, read-out: BPM control value (C.V.).
[9] abbreviates: 168 h, 10 ppm, read-out: BPM control value (C.V.).
The mark [10] stands for this setting: 168 h, 50 ppm, read-out: BPM control value (C.V.).

With `CO/N=C(/C(=O)OC)c1ccccc1CON=C(C)c1ccc(C=C(Br)Br)cc1` [Example 25, methyl-(E)-2-[[[[[2-[4-(2,2-dibromovinyl)phenyl](1-methyl)methylidene]amino]oxy]methyl]phenyl]-2-methoxyiminoacetate], the “WLR control value (C.V.)” value in the test on Puccinia recondita (2 ppm), with Puccinia recondita (10 ppm), in the test with Puccinia recondita (50 ppm) and in the test with Puccinia recondita (100 ppm) was 100% each time. Further, the “CGM control value (C.V.)” value with Botrytis cinerae (100 ppm) is on record as 35%. The “TLB control value (C.V.)” value with Phytophthora infestans (2 ppm) is reported as 93%; in the test with Phytophthora infestans (10 ppm) it was 100%; in the test with Phytophthora infestans (50 ppm), 100%; with Phytophthora infestans (100 ppm) it was 100%. In addition, the “RSB control value (C.V.)” value with Rhizoctonia solani AG-1 (2 ppm) amounted to 90%; in the test with Rhizoctonia solani AG-1 (10 ppm), 98%; in the test with Rhizoctonia solani AG-1 (50 ppm), 100%; in the test on Rhizoctonia solani AG-1 (100 ppm), 100%. Also, the “RCB control value (C.V.)” value in test [1] (2 ppm), in test [1] (10 ppm), in test [1] (50 ppm) and in test [1] (100 ppm) was 100% in each case. Also, the “BPM control value (C.V.)” value in the test with Erysiphae graminis (2 ppm), with Erysiphae graminis (10 ppm), with Erysiphae graminis (50 ppm) and in the test on Erysiphae graminis (100 ppm) was 100% in each case.

Regarding `CNC(=O)/C(=N/OC)c1ccccc1CON=C(C)c1ccc(C=C(F)Cl)cc1` [Example 34, (E)-2-[[[[[2-[4-(2-chloro-2-fluorovinyl)phenyl](1-methyl)methylidene]amino]oxy]methyl]phenyl]-2-methoxyimino-N-methylacetamide], the “WLR control value (C.V.)” value in the test on Puccinia recondita (100 ppm) is recorded as 72%. In the test with Botrytis cinerae (100 ppm), the “CGM control value (C.V.)” value was 40%. For the same molecule, the “TLB control value (C.V.)” value with Phytophthora infestans (50 ppm) came to 35%; in the test with Phytophthora infestans (100 ppm) it was 98%. Besides, the “RSB control value (C.V.)” value in the test on Rhizoctonia solani AG-1 (100 ppm) worked out at 15%. For the same molecule, the figures for the “RCB control value (C.V.)” value in test [1] (50 ppm) and in test [1] (100 ppm) were 90% and 95%, respectively. Besides, in the test on Erysiphae graminis (100 ppm), the “BPM control value (C.V.)” value is 60%.

Take `OC(c1ccc(Cl)cc1)(c1cncnc1)c1ccccc1Cl` (stereo not shown) [Fenarimol, reference compound]: the pest or weed control at 0.4 ppm was 15% in the test with Puccinia recondita (Puccinia recondita, 0.4 ppm, read-out: WLR control value (C.V.)); 7% in the test with Botrytis cinerae (Botrytis, 0.4 ppm, read-out: CGM control value (C.V.)); 65% with Phytophthora infestans (setting [5]); 30% in the test on Rhizoctonia solani AG-1 (setting [6]); 95% in the test on Erysiphae graminis (168 h, 0.4 ppm, read-out: BPM control value (C.V.)). The pest or weed control at 2 ppm was 80% in the test with Puccinia recondita (setting [2]); 7% in the test on Botrytis cinerae (Botrytis, 2 ppm, read-out: CGM control value (C.V.)); 75% with Phytophthora infestans (setting [5]); 40% in the test with Rhizoctonia solani AG-1 (setting [6]); 100% with Erysiphae graminis (setting [8]). The pest or weed control at 10 ppm in the test with Puccinia recondita (setting [3]) turned out to be 100%; in the test on Botrytis cinerae (Botrytis, 10 ppm, read-out: CGM control value (C.V.)), 7%; with Phytophthora infestans (setting [5]) it was 80%; in the test with Rhizoctonia solani AG-1 (setting [6]), 85%; in test [1] (setting [7]), 0%; in the test on Erysiphae graminis (setting [9]), 100%. Further, the pest or weed control at 50 ppm was 100% in the test with Puccinia recondita (setting [4]); 30% in the test with Botrytis cinerae (Botrytis, 50 ppm, read-out: CGM control value (C.V.)); 95% with Phytophthora infestans (setting [5]); 100% with Rhizoctonia solani AG-1 (setting [6]); 20% in test [1] (setting [7]); 100% with Erysiphae graminis (setting [10]).

As for `CO/N=C(/C(=O)OC)c1ccccc1COc1cc(Br)ccc1C=C(Br)Br` [Example 85, methyl-(E)-2-(2-((5-bromo-2-(2,2-dibromovinyl)phenoxy)methyl)phenyl)-2-methoxyiminoacetate], the pest or weed control at 2 ppm in the test with Puccinia recondita (setting [2]) was determined as 80%; with Rhizoctonia solani AG-1 (setting [6]), 60%; in test [1] (setting [7]), 70%; in the test with Erysiphae graminis (setting [8]), 25%. Further, the pest or weed control at 10 ppm was 99% with Puccinia recondita (setting [3]); 20% in the test with Phytophthora infestans (setting [5]); 85% in the test on Rhizoctonia solani AG-1 (setting [6]); 90% in test [1] (setting [7]); 70% in the test with Erysiphae graminis (setting [9]). Besides, the pest or weed control at 50 ppm came to 100% in the test with Puccinia recondita (setting [4]); 100% in the test on Phytophthora infestans (setting [5]); 96% with Rhizoctonia solani AG-1 (setting [6]); 100% in test [1] (setting [7]); 97% in the test on Erysiphae graminis (setting [10]). Besides, the pest or weed control at 100 ppm in the test on Puccinia recondita (Puccinia recondita, 100 ppm, read-out: WLR control value (C.V.)) came to 100%; with Botrytis cinerae (Botrytis, 100 ppm, read-out: CGM control value (C.V.)), 35%; in the test on Phytophthora infestans (setting [5]), 100%; with Rhizoctonia solani AG-1 (setting [6]) it was 99%; in test [1] (setting [7]) it was 100%; in the test with Erysiphae graminis (168 h, 100 ppm, read-out: BPM control value (C.V.)), 100%.

Turning to `CNC(=O)/C(=N/OC)c1ccccc1CON=C(C)c1cccc(C=C(Cl)Cl)c1` [Example 20, (E)-2-[[[[[2-[3-(2,2-dichlorovinyl)phenyl](1-methyl)methylidene]amino]oxy]methyl]phenyl]-2-methoxyimino-N-methylacetamide], the “WLR control value (C.V.)” value in the test on Puccinia recondita (2 ppm) was 30%; with Puccinia recondita (10 ppm) it was 90%; in the test on Puccinia recondita (50 ppm), 98%; in the test with Puccinia recondita (100 ppm), 100%. Moreover, in the test on Botrytis cinerae (100 ppm), the “CGM control value (C.V.)” value worked out at 74%. For the same molecule, the “TLB control value (C.V.)” value with Phytophthora infestans (2 ppm) is given as 98%; in the test with Phytophthora infestans (10 ppm), 100%; with Phytophthora infestans (50 ppm) it was 100%; in the test with Phytophthora infestans (100 ppm), 100%. The “RSB control value (C.V.)” value in the test with Rhizoctonia solani AG-1 (100 ppm) was 75%. The “RCB control value (C.V.)” value is 90% in test [1] (2 ppm), 97% in test [1] (10 ppm), 100% in test [1] (50 ppm) and 100% in test [1] (100 ppm). Also, the “BPM control value (C.V.)” value in the test on Erysiphae graminis (2 ppm), in the test on Erysiphae graminis (10 ppm), in the test with Erysiphae graminis (50 ppm) and with Erysiphae graminis (100 ppm) was 100% each time.

Take `CO/N=C(/C(=O)OC)c1ccccc1CON=C(C)c1ccc(C=C(Cl)Br)cc1` [Example 37, methyl-(E)-2-[[[[[2-[4-(2-bromo-2-chlorovinyl)phenyl](1-methyl)methylidene]amino]oxy]methyl]phenyl]-2-methoxyiminoacetate]: the “WLR control value (C.V.)” value in the test with Puccinia recondita (2 ppm), in the test with Puccinia recondita (10 ppm), in the test on Puccinia recondita (50 ppm) and with Puccinia recondita (100 ppm) was 100% throughout. Moreover, in the test on Botrytis cinerae (100 ppm), the “CGM control value (C.V.)” value is reported as 50%. Also, the “TLB control value (C.V.)” value in the test on Phytophthora infestans (10 ppm) is reported as 10%; with Phytophthora infestans (50 ppm), 90%; in the test with Phytophthora infestans (100 ppm) it was 100%. Also, the “RSB control value (C.V.)” value in the test with Rhizoctonia solani AG-1 (100 ppm) worked out at 90%. For the same molecule, the “RCB control value (C.V.)” value in test [1] (2 ppm) came out at 75%; in test [1] (10 ppm), 90%; in test [1] (50 ppm), 100%; in test [1] (100 ppm) it was 100%. For the same molecule, the “BPM control value (C.V.)” value in the test on Erysiphae graminis (2 ppm) is given as 35%; with Erysiphae graminis (10 ppm), 90%; in the test on Erysiphae graminis (50 ppm) it was 93%; in the test with Erysiphae graminis (100 ppm), 95%.

Source of the values: patent US8410302B2, “Methoxyimino compounds and fungicide composition comprising same” (Kyung Nong Corporation, priority 2007, dated 2013).
